According to US9527869B2, “Indolizine derivatives as phoshoinositide 3-kinases inhibitors” (CHIESI FARMACEUTICI S.P.A., priority 2014, dated 2016):

Columns and labels:
Assay type in all cases: biochemical
PI3Kβ = target: T1, PI3Kβ (Homo sapiens, UniProt P42338); assay: In vitro determination of the PI3K enzyme inhibitory activity in the cell free assay (ADP-Glo Kinase Assay), PI3Kβ; conditions: ATP 100 μM, read-out: PI3K beta inhibition
T1 construct: purchased Millipore Ltd (Billerica, Mass.)
Description: (§1) In vitro Determination of the PI3K Enzyme Inhibitory Activity in the Cell Free Assay
(§2) Human recombinant proteins PI3Kα, PI3Kβ, PI3Kγ and PI3Kδ were purchased from Millipore Ltd (Billerica, Mass.). Compounds were dissolved at 0.5 mM in DMSO and were tested at different concentrations for their activity against PI3Ks using the ADP-Glo™ Kinase Assay (Promega, Madison Wis.) according to the manufacturer's instructions.
(§3) Briefly, the kinase reactions were performed in 384-well white plates (Greiner Bio-One GmbH, Frickenhausen). Each well was loaded with 0.1 μl of test compounds and 2.5 μl of 2× reaction buffer (40 mM Tris pH7.5, 0.5 mM EGTA, 0.5 mM Na3VO4, 5 mM β-glycerophosphate, 0.1 mg/ml BSA, 1 mM DTT), containing 50 μM PI and PS substrates (L-α-phosphatidylinositol sodium salt and L-α-phosphatidyl-L-serine, Sigma-Aldrich, St. Louis Mo.) and the PI3K recombinant proteins (PI3Kγ 0.25 ng/μl, PI3Kδ 1 ng/μl, PI3Kα 0.125 ng/μl, PI3Kβ 1 ng/μl).
(§4) The reactions were started by adding 2.5 μl of 2×ATP solution to each well (final concentrations: PI3Kγ ATP 30 μM; PI3Kδ ATP 80 μM; PI3KαATP 50 μM; PI3Kβ ATP 100 μM) and incubated for 60 min at room temperature. Subsequently, each kinase reaction was incubated for 40 min with 5 μl ADP-Glo™ Reagent, allowing depletion of unconsumed ATP. Then, the Kinase Detection Reagent (10 μl) was added in each well to convert ADP to ATP and to allow the newly synthesized ATP to be measured using a luciferase/luciferin reaction. Following 60 min incubation, the luminescence signal was measured using a Wallac EnVision® multilabel reader (PerkinElmer, Waltham Mass.).
(§5) Curve fitting and IC50 calculation were carried out using a four-parameter logistic model in XLfit (IDBS, Guilford, UK) for Microsoft Excel (Microsoft, Redmont, Wash.).

PI3Kγ = target: T2, PI3Kγ (Homo sapiens, UniProt P48736); assay: In vitro determination of the PI3K enzyme inhibitory activity in the cell free assay (ADP-Glo Kinase Assay), PI3Kγ; conditions: ATP 30 μM, read-out: PI3K gamma inhibition
T2 construct: purchased Millipore Ltd (Billerica, Mass.)
Description: as §1, §2, §3, §4, §5

PI3Kα = target: T3, PI3Kα (Homo sapiens, UniProt P42336); assay: In vitro determination of the PI3K enzyme inhibitory activity in the cell free assay (ADP-Glo Kinase Assay), PI3Kα; conditions: ATP 50 μM, read-out: PI3K alpha inhibition
T3 construct: purchased Millipore Ltd (Billerica, Mass.)
Description: as §1, §2, §3, §4, §5

PI3Kδ = target: T4, PI3Kδ (Homo sapiens, UniProt O00329); assay: In vitro determination of the PI3K enzyme inhibitory activity in the cell free assay (ADP-Glo Kinase Assay), PI3Kδ; conditions: ATP 80 μM, read-out: PI3K delta inhibition
T4 construct: purchased Millipore Ltd (Billerica, Mass.)
Description: as §1, §2, §3, §4, §5

T3 sequence (P42336 whole entry): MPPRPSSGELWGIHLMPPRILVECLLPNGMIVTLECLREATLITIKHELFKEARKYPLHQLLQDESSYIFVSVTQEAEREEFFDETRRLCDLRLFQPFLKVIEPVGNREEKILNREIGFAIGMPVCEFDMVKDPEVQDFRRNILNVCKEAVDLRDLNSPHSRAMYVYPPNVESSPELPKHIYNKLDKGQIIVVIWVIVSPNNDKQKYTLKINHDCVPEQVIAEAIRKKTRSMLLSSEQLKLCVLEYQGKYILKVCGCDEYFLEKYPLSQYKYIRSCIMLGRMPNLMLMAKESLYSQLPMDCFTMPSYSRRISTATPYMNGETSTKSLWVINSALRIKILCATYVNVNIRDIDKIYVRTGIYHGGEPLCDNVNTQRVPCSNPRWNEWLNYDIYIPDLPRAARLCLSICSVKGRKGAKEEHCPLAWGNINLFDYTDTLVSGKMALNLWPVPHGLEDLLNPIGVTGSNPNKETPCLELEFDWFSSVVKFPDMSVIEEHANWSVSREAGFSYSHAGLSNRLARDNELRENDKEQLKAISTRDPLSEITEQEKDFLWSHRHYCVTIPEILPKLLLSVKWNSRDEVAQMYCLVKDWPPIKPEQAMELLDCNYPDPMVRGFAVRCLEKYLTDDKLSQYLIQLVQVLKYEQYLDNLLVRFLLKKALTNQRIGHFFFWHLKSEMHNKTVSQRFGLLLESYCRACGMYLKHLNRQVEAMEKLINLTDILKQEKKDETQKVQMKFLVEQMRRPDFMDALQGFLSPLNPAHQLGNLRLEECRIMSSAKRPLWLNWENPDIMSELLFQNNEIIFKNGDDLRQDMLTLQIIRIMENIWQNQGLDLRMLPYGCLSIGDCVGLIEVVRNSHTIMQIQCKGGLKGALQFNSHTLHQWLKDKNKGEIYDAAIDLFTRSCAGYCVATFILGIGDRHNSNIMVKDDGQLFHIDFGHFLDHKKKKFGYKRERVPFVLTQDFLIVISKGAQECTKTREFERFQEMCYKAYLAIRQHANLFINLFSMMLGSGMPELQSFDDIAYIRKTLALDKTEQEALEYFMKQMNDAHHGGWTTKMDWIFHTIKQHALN
T3 sequence (P27986 whole entry partner): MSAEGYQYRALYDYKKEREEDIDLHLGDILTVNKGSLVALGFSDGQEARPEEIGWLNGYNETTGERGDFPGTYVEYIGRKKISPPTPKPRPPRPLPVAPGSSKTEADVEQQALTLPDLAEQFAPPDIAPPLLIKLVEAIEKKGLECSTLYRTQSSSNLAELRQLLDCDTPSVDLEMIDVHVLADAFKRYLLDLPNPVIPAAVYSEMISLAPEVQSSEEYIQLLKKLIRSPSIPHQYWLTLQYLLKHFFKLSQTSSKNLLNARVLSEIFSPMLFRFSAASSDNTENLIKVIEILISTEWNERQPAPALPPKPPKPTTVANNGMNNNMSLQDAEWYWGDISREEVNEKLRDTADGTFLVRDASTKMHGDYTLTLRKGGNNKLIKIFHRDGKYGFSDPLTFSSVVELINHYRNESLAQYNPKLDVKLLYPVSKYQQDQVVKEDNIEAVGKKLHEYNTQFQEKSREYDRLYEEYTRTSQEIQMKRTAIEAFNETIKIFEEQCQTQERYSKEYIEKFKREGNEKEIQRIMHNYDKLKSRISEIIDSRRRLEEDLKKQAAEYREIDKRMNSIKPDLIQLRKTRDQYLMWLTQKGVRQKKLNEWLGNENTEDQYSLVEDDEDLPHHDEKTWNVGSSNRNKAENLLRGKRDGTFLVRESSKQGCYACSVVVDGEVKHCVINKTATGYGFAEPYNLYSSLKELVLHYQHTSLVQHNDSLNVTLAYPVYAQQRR
T4 sequence (O00329 whole entry): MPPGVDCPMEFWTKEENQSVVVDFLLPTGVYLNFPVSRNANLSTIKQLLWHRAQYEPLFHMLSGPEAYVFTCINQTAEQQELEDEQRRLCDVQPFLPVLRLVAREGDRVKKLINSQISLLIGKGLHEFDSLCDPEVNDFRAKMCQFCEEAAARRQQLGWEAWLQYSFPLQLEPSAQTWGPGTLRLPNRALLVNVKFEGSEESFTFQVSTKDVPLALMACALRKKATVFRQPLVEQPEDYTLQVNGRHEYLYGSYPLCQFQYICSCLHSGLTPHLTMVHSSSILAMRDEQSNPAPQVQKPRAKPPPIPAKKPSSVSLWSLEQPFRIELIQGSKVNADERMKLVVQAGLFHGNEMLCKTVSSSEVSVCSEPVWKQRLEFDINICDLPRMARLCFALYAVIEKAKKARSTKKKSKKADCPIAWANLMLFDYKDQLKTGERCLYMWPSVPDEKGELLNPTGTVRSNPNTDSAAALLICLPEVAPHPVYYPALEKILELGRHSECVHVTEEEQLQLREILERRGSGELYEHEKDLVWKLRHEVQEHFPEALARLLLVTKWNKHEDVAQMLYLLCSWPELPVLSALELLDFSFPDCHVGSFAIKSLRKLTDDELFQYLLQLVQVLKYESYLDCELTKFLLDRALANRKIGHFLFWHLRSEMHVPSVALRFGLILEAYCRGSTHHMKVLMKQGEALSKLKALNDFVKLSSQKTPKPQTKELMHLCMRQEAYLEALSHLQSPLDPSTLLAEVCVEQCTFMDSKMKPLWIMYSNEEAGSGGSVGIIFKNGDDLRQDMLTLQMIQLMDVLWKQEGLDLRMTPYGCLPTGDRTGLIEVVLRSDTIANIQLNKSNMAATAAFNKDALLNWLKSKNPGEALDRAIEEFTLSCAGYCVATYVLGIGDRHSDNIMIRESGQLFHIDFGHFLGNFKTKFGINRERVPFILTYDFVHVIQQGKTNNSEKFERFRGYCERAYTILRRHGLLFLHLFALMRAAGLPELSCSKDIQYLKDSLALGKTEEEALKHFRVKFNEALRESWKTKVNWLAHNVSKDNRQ
T4 sequence (P27986 whole entry partner): as the sequence (P27986 whole entry partner) above
T1 sequence (P42338 whole entry): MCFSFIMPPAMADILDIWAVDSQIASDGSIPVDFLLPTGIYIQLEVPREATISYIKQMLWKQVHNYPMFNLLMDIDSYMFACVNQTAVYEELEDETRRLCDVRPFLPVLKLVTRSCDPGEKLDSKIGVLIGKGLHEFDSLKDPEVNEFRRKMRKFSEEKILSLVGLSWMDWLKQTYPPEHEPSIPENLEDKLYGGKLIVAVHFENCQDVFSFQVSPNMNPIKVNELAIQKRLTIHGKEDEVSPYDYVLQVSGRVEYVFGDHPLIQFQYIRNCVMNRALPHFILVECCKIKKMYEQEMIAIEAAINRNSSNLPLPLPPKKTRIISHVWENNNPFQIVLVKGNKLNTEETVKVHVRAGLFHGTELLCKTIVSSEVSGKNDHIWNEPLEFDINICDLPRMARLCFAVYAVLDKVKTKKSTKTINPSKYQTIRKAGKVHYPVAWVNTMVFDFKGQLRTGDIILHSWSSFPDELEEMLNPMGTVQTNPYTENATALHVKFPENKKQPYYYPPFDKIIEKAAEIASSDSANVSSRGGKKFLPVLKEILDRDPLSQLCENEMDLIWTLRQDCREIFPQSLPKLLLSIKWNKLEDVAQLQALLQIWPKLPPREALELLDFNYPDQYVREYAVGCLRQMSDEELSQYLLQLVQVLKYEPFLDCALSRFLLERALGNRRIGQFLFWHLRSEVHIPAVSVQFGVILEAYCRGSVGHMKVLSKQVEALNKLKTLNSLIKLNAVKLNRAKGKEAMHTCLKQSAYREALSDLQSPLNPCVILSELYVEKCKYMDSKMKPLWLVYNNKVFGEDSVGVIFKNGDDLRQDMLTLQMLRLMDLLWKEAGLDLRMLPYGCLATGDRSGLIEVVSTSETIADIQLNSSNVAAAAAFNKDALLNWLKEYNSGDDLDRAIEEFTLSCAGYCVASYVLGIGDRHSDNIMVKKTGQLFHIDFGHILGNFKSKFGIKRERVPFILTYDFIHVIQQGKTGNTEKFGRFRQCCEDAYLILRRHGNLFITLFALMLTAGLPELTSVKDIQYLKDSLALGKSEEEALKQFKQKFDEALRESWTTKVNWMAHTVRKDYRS
T1 sequence (P27986 whole entry partner): as the sequence (P27986 whole entry partner) above
T2 sequence (P48736 whole entry): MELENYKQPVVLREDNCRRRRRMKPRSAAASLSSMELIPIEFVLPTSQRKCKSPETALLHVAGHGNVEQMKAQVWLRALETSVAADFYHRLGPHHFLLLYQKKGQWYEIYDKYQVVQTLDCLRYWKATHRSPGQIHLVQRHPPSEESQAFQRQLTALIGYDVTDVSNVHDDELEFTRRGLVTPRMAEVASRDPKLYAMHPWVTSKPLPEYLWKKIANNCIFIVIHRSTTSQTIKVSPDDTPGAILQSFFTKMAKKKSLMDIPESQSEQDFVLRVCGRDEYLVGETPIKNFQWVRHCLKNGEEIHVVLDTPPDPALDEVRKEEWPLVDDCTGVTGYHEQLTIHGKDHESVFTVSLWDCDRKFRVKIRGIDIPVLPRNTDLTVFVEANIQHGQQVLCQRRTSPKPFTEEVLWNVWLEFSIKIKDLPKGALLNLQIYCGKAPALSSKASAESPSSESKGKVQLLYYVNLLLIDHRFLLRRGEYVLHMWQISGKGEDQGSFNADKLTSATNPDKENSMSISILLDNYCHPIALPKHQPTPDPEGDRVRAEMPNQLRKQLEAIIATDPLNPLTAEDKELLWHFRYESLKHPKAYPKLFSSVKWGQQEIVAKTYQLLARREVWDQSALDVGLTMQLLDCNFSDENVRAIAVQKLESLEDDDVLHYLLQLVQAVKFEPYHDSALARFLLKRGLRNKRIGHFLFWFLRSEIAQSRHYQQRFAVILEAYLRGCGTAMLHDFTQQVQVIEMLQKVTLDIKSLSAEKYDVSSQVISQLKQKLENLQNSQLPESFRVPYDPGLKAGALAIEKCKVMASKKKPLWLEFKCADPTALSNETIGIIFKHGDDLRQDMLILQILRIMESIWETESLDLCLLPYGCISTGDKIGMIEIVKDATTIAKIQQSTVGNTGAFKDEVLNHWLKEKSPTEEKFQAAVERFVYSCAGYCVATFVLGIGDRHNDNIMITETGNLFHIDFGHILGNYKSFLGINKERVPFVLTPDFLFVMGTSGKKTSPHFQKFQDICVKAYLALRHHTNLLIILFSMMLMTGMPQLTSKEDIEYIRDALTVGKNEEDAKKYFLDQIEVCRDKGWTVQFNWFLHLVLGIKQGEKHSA

IC50 (PI3Kβ) [nM]	IC50 (PI3Kγ) [nM]	IC50 (PI3Kα) [nM]	IC50 (PI3Kδ) [nM]	Structure (SMILES)
10 to 1000	10 to 1000	10 to 1000	< 10	CC(c1cc2ccccn2c1-c1cncs1)n1nc(-c2cc(O)cc(F)c2)c2c(N)ncnc21 (stereo not shown) [Example 94, 3-(4-amino-1-{1-[3-(1,3-thiazol-5-yl)indolizin-2-yl]ethyl}-1H-pyrazolo[3,4-d]pyrimidin-3-yl)-5-fluorophenol]
10 to 1000	> 1000	> 1000	10 to 1000	C[C@H](c1cc2ccccn2c1-c1cccc(CN(C)C)c1)n1nc(-c2cc(O)cc(F)c2)c2c(N)ncnc21 (single isomer, unassigned) [Example 93b, 3-{4-amino-1-[1-(3-{3-[(dimethylamino)methyl]phenyl}indolizin-2-yl)ethyl]-1H-pyrazolo[3,4-d]pyrimidin-3-yl}-5-fluorophenol]
10 to 1000	> 1000	> 1000	< 10	C[C@H](c1cc2ccccn2c1-c1ccc(CN2CCOCC2)cn1)n1nc(-c2cc(O)cc(F)c2)c2c(N)ncnc21 (single isomer, unassigned) [Example 108b, 3-[4-amino-1-(1-{3-[5-(morpholin-4-ylmethyl)pyridin-2-yl]indolizin-2-yl}ethyl)-1H-pyrazolo[3,4-d]pyrimidin-3-yl]-5-fluorophenol]
10 to 1000	10 to 1000	10 to 1000	< 10	CC(c1cc2ccccn2c1CN1CCOCC1)n1nc(-c2cc(O)cc(F)c2)c2c(N)ncnc21 (stereo not shown) [Example 141, 3-(4-amino-1-{1-[3-(morpholin-4-ylmethyl)indolizin-2-yl]ethyl}-1H-pyrazolo[3,4-d]-pyrimidin-3-yl)-5-fluorophenol]
10 to 1000	> 1000	> 1000	< 10	CC(c1cc2ccccn2c1-c1ccc(CN2CCCC2)cn1)n1nc(-c2cc(O)cc(F)c2)c2c(N)ncnc21 (stereo not shown) [Example 113, 3-[4-amino-1-(1-{3-[5-(pyrrolidin-1-ylmethyl)pyridin-2-yl]indolizin-2-yl}ethyl)-1H-pyrazolo[3,4-d]pyrimidin-3-yl]-5-fluorophenol]
10 to 1000	10 to 1000	10 to 1000	< 10	C[C@@H](c1cc2ccccn2c1-c1ccccn1)n1nc(-c2cc(O)cc(F)c2)c2c(N)ncnc21 (single isomer, unassigned) [Example 80, 3-(4-amino-1-{1-[3-(pyridin-2-yl)indolizin-2-yl]ethyl}-1H-pyrazolo[3,4-d]pyrimidin-3-yl)-5-fluorophenol]
10 to 1000	> 1000	> 1000	< 10	CC(c1cc2ccccn2c1-c1ccccc1C#N)n1nc(-c2cc(O)cc(F)c2)c2c(N)ncnc21 (stereo not shown) [Example 123, 2-(2-{1-[4-amino-3-(3-fluoro-5-hydroxyphenyl)-1H-pyrazolo[3,4-d]pyrimidin-1-yl]-ethyl}indolizin-3-yl)benzonitrile]
> 1000	> 1000	> 1000	10 to 1000	Cc1ccn2c(-c3ccccn3)c(C(C)n3nc(-c4cc(O)cc(F)c4)c4c(N)ncnc43)cc2c1 (stereo not shown) [Example 105, 3-(4-amino-1-{1-[7-methyl-3-(pyridin-2-yl)indolizin-2-yl]ethyl}-1H-pyrazolo[3,4-d]pyrimidin-3-yl)-5-fluorophenol]
10 to 1000	> 1000	> 1000	10 to 1000	CC(c1cc2ccccn2c1-c1ccc(OC2CCN(C)CC2)nn1)n1nc(-c2cc(O)cc(F)c2)c2c(N)ncnc21 (stereo not shown) [Example 139, 3-{4-amino-1-[1-(3-{6-[(1-methylpiperidin-4-yl)oxy]pyridazin-3-yl}indolizin-2-yl)ethyl]-1H-pyrazolo-[3,4-d]pyrimidin-3-yl}-5-fluorophenol]

Continued, molecule first:

Structure (SMILES)	IC50 (PI3Kβ) [nM]	IC50 (PI3Kγ) [nM]	IC50 (PI3Kα) [nM]	IC50 (PI3Kδ) [nM]
Cc1ccccc1-c1c(Cn2cnc3c(N)ncnc32)cn2ccccc12 [Example 12, 9-{[1-(2-methylphenyl)indolizin-2-yl]methyl}-9H-purin-6-amine]	> 1000	> 1000	> 1000	> 1000
CC(Nc1ncnc(N)c1C#N)c1cc2ccccn2c1-c1ccsc1 (stereo not shown) [Example 38, 4-amino-6-({1-[3-(thiophen-3-yl)indolizin-2-yl]ethyl}amino)pyrimidine-5-carbonitrile]	> 1000	> 1000	> 1000	10 to 1000
CC(c1cc2ccccn2c1-c1ccn(CCN2CCOCC2)c(=O)c1)n1nc(-c2cc(O)cc(F)c2)c2c(N)ncnc21 (stereo not shown) [Example 121, 4-(2-{1-[4-amino-3-(3-fluoro-5-hydroxyphenyl)-1H-pyrazolo[3,4-d]pyrimidin-1-yl]ethyl}-indolizin-3-yl)-1-[2-(morpholin-4-yl)ethyl]-1,2-dihydropyridin-2-one]	10 to 1000	10 to 1000	> 1000	< 10
c1ccn2cc(CNc3ncnc4[nH]cnc34)cc2c1 [Example 21, N-(indolizin-2-ylmethyl)-9H-purin-6-amine]	10 to 1000	> 1000	> 1000	10 to 1000
N#Cc1c(N)ncnc1NCc1cn2ccccc2c1-c1ccccn1 [Example 30, 4-amino-6-({[1-(pyridin-2-yl)indolizin-2-yl]methyl}amino)pyrimidine-5-carbonitrile]	> 1000	> 1000	> 1000	10 to 1000
N#Cc1c(N)ncnc1NCc1cc2ccccn2c1-c1ccccn1 [Example 23, 4-amino-6-({[3-(pyridin-2-yl)indolizin-2-yl]methyl}amino)pyrimidine-5-carbonitrile]	> 1000	> 1000	> 1000	10 to 1000
CC(c1cc2ccccn2c1-c1ccn(CCN(C)C)c(=O)c1)n1nc(-c2cc(O)cc(F)c2)c2c(N)ncnc21 (stereo not shown) [Example 133, 4-(2-{1-[4-amino-3-(3-fluoro-5-hydroxyphenyl)-1H-pyrazolo[3,4-d]pyrimidin-1-yl]-ethyl}indolizin-3-yl)-1-[2-(dimethylamino)-ethyl]-1,2-dihydropyridin-2-one]	10 to 1000	10 to 1000	> 1000	< 10
CC(Nc1ncnc(N)c1C(N)=O)c1cc2ccccn2c1-c1ccccn1 (stereo not shown) [Example 52, 4-amino-6-({1-[3-(pyridin-2-yl)indolizin-2-yl]ethyl}amino)pyrimidine-5-carboxamide]	> 1000	> 1000	> 1000	10 to 1000
CC(c1cc2ccccn2c1-c1ccccn1)n1nc(-c2cncc(O)c2)c2c(N)ncnc21 (stereo not shown) [Example 69, 5-(4-amino-1-{1-[3-(pyridin-2-yl)indolizin-2-yl]ethyl}-1H-pyrazolo[3,4-d]pyrimidin-3-yl)pyridin-3-ol]	10 to 1000	10 to 1000	> 1000	< 10
CC(c1cc2ccccn2c1-c1ccccn1)n1nc(-c2ccc(O)c(F)c2)c2c(N)ncnc21 (stereo not shown) [Example 70, 4-(4-amino-1-{1-[3-(pyridin-2-yl)indolizin-2-yl]ethyl}-1H-pyrazolo[3,4-d]pyrimidin-3-yl)-2-fluorophenol]	> 1000	10 to 1000	> 1000	10 to 1000
CC(c1cc2ccccn2c1-c1ccccn1)n1nc(-c2ccccc2)c2c(N)ncnc21 (stereo not shown) [Example 60, 3-phenyl-1-{1-[3-(pyridin-2-yl)indolizin-2-yl]ethyl}-1H-pyrazolo[3,4-d]pyrimidin-4-amine]	> 1000	> 1000	> 1000	10 to 1000
CC(c1cc2ccccn2c1-c1ccn(CCN(CCO)CCO)n1)n1nc(-c2cc(O)cc(F)c2)c2c(N)ncnc21 (stereo not shown) [Example 149, 3-(4-amino-1-{1-[3-(1-{2-[bis(2-hydroxyethyl)amino]ethyl}-1H-pyrazol-3-yl)indolizin-2-yl]ethyl}-1H-pyrazolo[3,4-d]pyrimidin-3-yl)-5-fluorophenol]	10 to 1000	10 to 1000	> 1000	< 10
CC(c1c(C(F)(F)F)c2ccccn2c1-c1ccccn1)n1nc(-c2cc(O)cc(F)c2)c2c(N)ncnc21 (stereo not shown) [Example 124, 3-(4-amino-1-{1-[3-(pyridin-2-yl)-1-(trifluoromethyl)indolizin-2-yl]ethyl}-1H-pyrazolo[3,4-d]pyrimidin-3-yl)-5-fluorophenol]	10 to 1000	> 1000	> 1000	< 10
